In patent US12391721B2, “Crystal forms of beta-nicotinamide mononucleotide” (Metro International Biotech, LLC, priority 2015, dated 2025):

Tests used:
Type in all cases: physicochemical
[1] = Three month stability and forced degradation study: solid form by XRPD after storage; conditions: for XRPD: Replicate 1
Experimental: X-Ray Powder Diffraction patterns were collected on a Bruker D8 diffractometer using Cu Kα radiation (40 kV, 40 mA), θ-2θ goniometer, and divergence of V4 and receiving slits, a Ge monochromator and a Lynxeye detector. The instrument is performance checked using a certified Corundum standard (NIST 1976). The software used for data collection was Diffrac Plus XRD Commander v2.6.1 and the data were analysed and presented using Diffrac Plus EVA v15.0.0.0.
Samples were run under ambient conditions as flat plate specimens using powder as received. The sample was gently packed into a cavity cut into polished, zero-background (510) silicon wafer. The sample was rotated in its own plane during analysis. The details of the data collection are: • Angular range: 2 to 42° 2θ • Step size: 0.05° 2θ • Collection time: 0.5 s/step HPLC
(§1) […] The samples were prepared in duplicate with an offset of 2 weeks. Each replicate was stored in a different container.
(§2) Replicate 1 was charged in an open HPLC vial that was placed in a sealed scintillation vial containing a saturated solution of the relevant inorganic salt (Table 2). These samples were analysed by HPLC, 1H NMR, XRPD and Polarized Light Microscopy (PLM) at 4, 8, and 12 week time points.

[2] = Three month stability and forced degradation study: visual observations of stored solids
Experimental: as §1, §2
(§3) Replicate 2 was stored in sealed box with a recipient containing a saturated solution of the relevant inorganic salt (Table 2). These samples were analysed by HPLC at 2, 6, 10 and 12 week time points. Samples at 25° C./0% RH were stored in a sealed box containing a desiccant agent (P2O5).

[3] = Three month stability and forced degradation study: particle morphology by polarised light microscopy (PLM); conditions: Replicate 1
Experimental: Samples were studied on a Leica LM/DM polarised light microscope with a digital video camera for image capture. A small amount of each sample was placed on a glass slide, 15 mounted in immersion oil and covered with a glass slip, the individual particles being separated as well as possible. The sample was viewed with appropriate magnification and partially polarised light, coupled to a λ false-color filter.
as §1, §2

[4] = Three month stability and forced degradation study: HPLC purity of stored solids; conditions: for Known Impurity* (%) (nicotinamide, RRT = 1.73 min) / Purity (%): HPLC
Experimental: Purity analysis was performed on an Agilent HP1100 series system equipped with a diode array detector and using ChemStation software vB.04.03 using the method detailed below in Table 1.
as §1, §2, §3

[5] = solid stored 25° C., 0% RH, 4 weeks
[6] = solid stored 25° C., 0% RH, 8 weeks
[7] = solid stored 25° C., 0% RH, 12 weeks
[8] = solid stored 25° C., 60% RH, 4 weeks
[9] = solid stored 25° C., 60% RH, 8 weeks
[10] = solid stored 25° C., 60% RH, 12 weeks
[11] = solid stored 25° C., 97% RH, 4 weeks
[12] = solid stored 25° C., 97% RH, 8 weeks
[13] = solid stored 25° C., 97% RH, 12 weeks
[14] = solid stored 40° C., 75% RH, 4 weeks
[15] = solid stored 40° C., 75% RH, 8 weeks
[16] = solid stored 40° C., 75% RH, 12 weeks
[17] = solid stored 25° C., 0% RH, 4 weeks, Replicate 1
[18] = solid stored 25° C., 0% RH, 8 weeks, Replicate 1
[19] = solid stored 25° C., 0% RH, 12 weeks, Replicate 1
[20] = solid stored 25° C., 60% RH, 2 weeks, Replicate 2
[21] = solid stored 25° C., 60% RH, 4 weeks, Replicate 1
[22] = solid stored 25° C., 60% RH, 6 weeks, Replicate 2
[23] = solid stored 25° C., 60% RH, 8 weeks, Replicate 1
[24] = solid stored 25° C., 60% RH, 10 weeks, Replicate 2
[25] = solid stored 25° C., 60% RH, 12 weeks, Replicate 1
[26] = solid stored 25° C., 60% RH, 12 weeks, Replicate 2
[27] = solid stored 25° C., 97% RH, 2 weeks, Replicate 2
[28] = solid stored 25° C., 97% RH, 4 weeks, Replicate 1
[29] = solid stored 25° C., 97% RH, 6 weeks, Replicate 2
[30] = solid stored 25° C., 97% RH, 8 weeks, Replicate 1
[31] = solid stored 25° C., 97% RH, 10 weeks, Replicate 2
[32] = solid stored 25° C., 97% RH, 12 weeks, Replicate 1
[33] = solid stored 25° C., 97% RH, 12 weeks, Replicate 2
[34] = solid stored 40° C., 75% RH, 2 weeks, Replicate 2
[35] = solid stored 40° C., 75% RH, 4 weeks, Replicate 1
[36] = solid stored 40° C., 75% RH, 6 weeks, Replicate 2
[37] = solid stored 40° C., 75% RH, 8 weeks, Replicate 1
[38] = solid stored 40° C., 75% RH, 10 weeks, Replicate 2
[39] = solid stored 40° C., 75% RH, 12 weeks, Replicate 1
[40] = solid stored 40° C., 75% RH, 12 weeks, Replicate 2
[41] = solid stored 25° C., 0% RH, 12 weeks, Replicate 1, listed as Crystalline Form 1
[42] = t = 0, baseline of the stability study, listed as RME-1304-063-01

solid form and particle morphology after storage ([1]; all conditions tested): remained unchanged
XRPD [1, 5]: Unchanged
XRPD [1, 6]: Unchanged
XRPD [1, 7]: Unchanged
XRPD [1, 8]: Unchanged
XRPD [1, 9]: Unchanged
XRPD [1, 10]: Unchanged
XRPD [1, 11]: Unchanged
XRPD [1, 12]: Unchanged
XRPD [1, 13]: Unchanged
XRPD [1, 14]: Unchanged
XRPD [1, 15]: Unchanged
XRPD [1, 16]: Unchanged
Observations [2, 17]: white solid
Observations [2, 18]: white solid
Observations [2, 19]: white solid
Observations [2, 20]: white solid
Observations [2, 21]: light brown
Observations [2, 22]: light brown
Observations [2, 23]: light brown
Observations [2, 24]: light brown
Observations [2, 25]: light brown
Observations [2, 26]: light brown
Observations [2, 27]: white solid
Observations [2, 28]: white solid
Observations [2, 29]: white solid,
Observations [2, 30]: white solid
Observations [2, 31]: white solid, wet
Observations [2, 32]: white solid,
Observations [2, 33]: white solid, wet
Observations [2, 34]: white solid
Observations [2, 35]: white solid
Observations [2, 36]: white solid
Observations [2, 37]: white solid
Observations [2, 38]: light brown
Observations [2, 39]: brown solid,
Observations [2, 40]: light brown
PLM [3, 5]: acicular
PLM [3, 6]: acicular
PLM [3, 7]: acicular
PLM [3, 8]: acicular
PLM [3, 9]: acicular
PLM [3, 10]: acicular
PLM [3, 11]: acicular
PLM [3, 12]: acicular
PLM [3, 13]: acicular
PLM [3, 14]: acicular
PLM [3, 15]: acicular
PLM [3, 16]: acicular
chemical purity after storage ([4]; 4 weeks of storage at all the tested conditions): ~99.3%
Known Impurity* (%) (nicotinamide, RRT = 1.73 min) [4, 17]: 0.25%
Purity (%) [4, 17]: 99.4%
Known Impurity* (%) (nicotinamide, RRT = 1.73 min) [4, 18]: 0.33%
Purity (%) [4, 18]: 99.2%
Known Impurity* (%) (nicotinamide, RRT = 1.73 min) [4, 19]: 0.38%
Purity (%) [4, 19]: 98.9%
Known Impurity* (%) (nicotinamide, RRT = 1.73 min) [4, 41]: 0.38%
Purity (%) [4, 41]: 98.9%
Known Impurity* (%) (nicotinamide, RRT = 1.73 min) [4, 20]: 0.19%
Purity (%) [4, 20]: 99.6%
Known Impurity* (%) (nicotinamide, RRT = 1.73 min) [4, 21]: 0.34%
Purity (%) [4, 21]: 99.3%
Known Impurity* (%) (nicotinamide, RRT = 1.73 min) [4, 22]: 0.21%
Purity (%) [4, 22]: 99.5%
Known Impurity* (%) (nicotinamide, RRT = 1.73 min) [4, 23]: 0.63%
Purity (%) [4, 23]: 98.9%
Known Impurity* (%) (nicotinamide, RRT = 1.73 min) [4, 24]: 0.35%
Purity (%) [4, 24]: 99.1%
Known Impurity* (%) (nicotinamide, RRT = 1.73 min) [4, 25]: 0.98%
Purity (%) [4, 25]: 98.2%
Known Impurity* (%) (nicotinamide, RRT = 1.73 min) [4, 26]: 0.23%
Purity (%) [4, 26]: 98.8%
Known Impurity* (%) (nicotinamide, RRT = 1.73 min) [4, 27]: 0.22%
Purity (%) [4, 27]: 99.5%
Known Impurity* (%) (nicotinamide, RRT = 1.73 min) [4, 28]: 0.49%
Purity (%) [4, 28]: 99.3%
Known Impurity* (%) (nicotinamide, RRT = 1.73 min) [4, 29]: 0.38%
Purity (%) [4, 29]: 99.4%
Known Impurity* (%) (nicotinamide, RRT = 1.73 min) [4, 30]: 1.38%
Purity (%) [4, 30]: 98.3%
Known Impurity* (%) (nicotinamide, RRT = 1.73 min) [4, 31]: 0.77%
Purity (%) [4, 31]: 98.6%
Known Impurity* (%) (nicotinamide, RRT = 1.73 min) [4, 32]: 3.46%
Purity (%) [4, 32]: ~95.8^$ %
Purity (%) ([4]; solid stored 25° C., 97% RH, 12 weeks, Replicate 1, listed as Crystalline Form 1): 95.8%
Known Impurity* (%) (nicotinamide, RRT = 1.73 min) [4, 33]: 0.55%
Purity (%) [4, 33]: 98.4%
Known Impurity* (%) (nicotinamide, RRT = 1.73 min) [4, 34]: 0.22%
Purity (%) [4, 34]: 99.5%
Known Impurity* (%) (nicotinamide, RRT = 1.73 min) [4, 35]: 0.46%
Purity (%) [4, 35]: 99.2%
Known Impurity* (%) (nicotinamide, RRT = 1.73 min) [4, 36]: 0.27%
Purity (%) [4, 36]: 99.4%
Known Impurity* (%) (nicotinamide, RRT = 1.73 min) [4, 37]: 1.38%
Purity (%) [4, 37]: 97.7%
Known Impurity* (%) (nicotinamide, RRT = 1.73 min) [4, 38]: 0.49%
Purity (%) [4, 38]: 98.8%
Known Impurity* (%) (nicotinamide, RRT = 1.73 min) [4, 39]: 3.46%
Purity (%) [4, 39]: 90.7%
Known Impurity* (%) (nicotinamide, RRT = 1.73 min) [4, 40]: 0.77%
Purity (%) [4, 40]: 97.4%
HPLC purity profile, Area % of main peak (RRT 1.00) [4, 42]: 99.52 Area %
HPLC purity profile, Area % of peak at RRT 1.76 / 1.74 (nicotinamide) [4, 42]: 0.12 Area %
nicotinamide impurity ([4]; time 0): 0.12%
Purity ([4]; time 0, listed as Crystalline Form 1): 99.5%
SMILES: NC(=O)c1ccc[n+]([C@@H]2O[C@H](COP(=O)([O-])O)[C@@H](O)[C@H]2O)c1 [RME-1304-63-01, β-nicotinamide mononucleotide]
